Experiment [1] addresses T1, Phosphatidylinositol 4,5-bisphosphate 3-kinase catalytic subunit delta isoform (Homo sapiens, UniProt O00329).
T1 sequence (O00329 whole entry): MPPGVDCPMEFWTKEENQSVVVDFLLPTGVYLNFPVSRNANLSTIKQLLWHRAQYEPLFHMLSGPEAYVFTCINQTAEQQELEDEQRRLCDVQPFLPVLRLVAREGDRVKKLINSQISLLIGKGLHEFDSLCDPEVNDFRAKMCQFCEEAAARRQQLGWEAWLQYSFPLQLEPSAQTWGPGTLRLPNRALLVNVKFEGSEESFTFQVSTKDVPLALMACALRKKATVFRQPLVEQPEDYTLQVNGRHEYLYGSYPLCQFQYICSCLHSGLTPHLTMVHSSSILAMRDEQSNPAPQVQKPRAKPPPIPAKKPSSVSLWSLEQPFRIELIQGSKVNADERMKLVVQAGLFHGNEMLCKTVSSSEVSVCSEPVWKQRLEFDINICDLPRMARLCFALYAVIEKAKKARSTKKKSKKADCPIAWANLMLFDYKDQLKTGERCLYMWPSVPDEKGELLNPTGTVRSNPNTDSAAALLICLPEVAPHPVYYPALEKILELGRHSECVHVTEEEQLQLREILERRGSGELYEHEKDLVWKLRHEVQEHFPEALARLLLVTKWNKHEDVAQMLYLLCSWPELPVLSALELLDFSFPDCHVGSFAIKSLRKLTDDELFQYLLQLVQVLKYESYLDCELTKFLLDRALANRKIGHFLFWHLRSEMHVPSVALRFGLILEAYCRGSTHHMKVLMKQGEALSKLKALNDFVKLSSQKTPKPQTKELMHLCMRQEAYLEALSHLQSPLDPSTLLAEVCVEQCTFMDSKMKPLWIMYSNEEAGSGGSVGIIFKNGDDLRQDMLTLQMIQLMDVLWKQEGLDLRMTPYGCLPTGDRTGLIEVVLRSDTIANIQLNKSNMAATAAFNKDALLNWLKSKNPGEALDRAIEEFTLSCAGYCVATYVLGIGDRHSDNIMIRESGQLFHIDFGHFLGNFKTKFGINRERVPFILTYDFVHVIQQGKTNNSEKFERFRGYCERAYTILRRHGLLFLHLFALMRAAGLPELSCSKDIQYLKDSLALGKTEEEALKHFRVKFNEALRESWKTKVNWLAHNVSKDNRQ
As to the kind of experiment: Inhibition of p110delta (unknown origin) using L-alpha phosphatidylinositol as substrate after 1 hr in presence of [gamma33]-ATP by thin layer chromatographic analysis.

A further experiment has as its target PI3K p110 beta/p85 alpha (Homo sapiens, UniProt P42338). The experiment is described as follows: Inhibition of recombinant human p110beta/N-terminal His-tagged human p85alpha expressed in baculovirus infected sf cells using L-alpha-phosphatidylinositol as substrate after 1 hr in presence of [gamma33]-ATP by thin layer chromatographic analysis.
A short description of experiment [2]: Inhibition of recombinant mouse p110alpha/N-terminal His-tagged human p85alpha expressed in baculovirus infected Sf21 cells using L-alpha-phosphatidylinositol as substrate after 1 hr in presence of [gamma33]-ATP by thin layer chromatographic analysis.
A short description of experiment [3]: Antiproliferative activity against wild type p110alpha expressing human NZB5 cells after 5 days by [3H]-thymidine incorporation assay. The format is functional, cell-based. Background: Dividing cells build labelled thymidine or BrdU into new DNA.
Experiment [4] in a line: Antiproliferative activity against wild type p110alpha expressing human NZOV9 cells after 5 days by [3H]-thymidine incorporation assay. It counts as functional, cell-based.

The term IC50 denotes the concentration needed to halve the response being measured.

Chain of PI3K p110 beta/p85 alpha (P27986 whole entry): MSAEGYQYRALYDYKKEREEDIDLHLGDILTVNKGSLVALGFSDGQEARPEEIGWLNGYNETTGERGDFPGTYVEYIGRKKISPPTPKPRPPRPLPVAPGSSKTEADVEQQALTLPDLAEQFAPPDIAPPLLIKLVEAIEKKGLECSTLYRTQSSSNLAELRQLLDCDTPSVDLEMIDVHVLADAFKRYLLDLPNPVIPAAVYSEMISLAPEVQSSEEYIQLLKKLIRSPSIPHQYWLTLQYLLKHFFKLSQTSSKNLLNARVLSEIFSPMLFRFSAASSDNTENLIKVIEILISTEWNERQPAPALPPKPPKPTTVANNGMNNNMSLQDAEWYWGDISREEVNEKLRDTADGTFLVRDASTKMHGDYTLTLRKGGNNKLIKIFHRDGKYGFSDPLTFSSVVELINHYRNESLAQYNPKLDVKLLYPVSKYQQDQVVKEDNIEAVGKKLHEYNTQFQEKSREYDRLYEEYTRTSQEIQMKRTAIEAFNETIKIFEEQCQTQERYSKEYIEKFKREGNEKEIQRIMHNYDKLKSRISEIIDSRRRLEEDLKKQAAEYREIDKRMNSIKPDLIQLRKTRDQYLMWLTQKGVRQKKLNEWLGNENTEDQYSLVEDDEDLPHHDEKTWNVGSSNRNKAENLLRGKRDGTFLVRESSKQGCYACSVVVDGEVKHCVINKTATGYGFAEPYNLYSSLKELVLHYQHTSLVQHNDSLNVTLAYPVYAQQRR
Chain of PI3K p110 beta/p85 alpha (P42338 whole entry): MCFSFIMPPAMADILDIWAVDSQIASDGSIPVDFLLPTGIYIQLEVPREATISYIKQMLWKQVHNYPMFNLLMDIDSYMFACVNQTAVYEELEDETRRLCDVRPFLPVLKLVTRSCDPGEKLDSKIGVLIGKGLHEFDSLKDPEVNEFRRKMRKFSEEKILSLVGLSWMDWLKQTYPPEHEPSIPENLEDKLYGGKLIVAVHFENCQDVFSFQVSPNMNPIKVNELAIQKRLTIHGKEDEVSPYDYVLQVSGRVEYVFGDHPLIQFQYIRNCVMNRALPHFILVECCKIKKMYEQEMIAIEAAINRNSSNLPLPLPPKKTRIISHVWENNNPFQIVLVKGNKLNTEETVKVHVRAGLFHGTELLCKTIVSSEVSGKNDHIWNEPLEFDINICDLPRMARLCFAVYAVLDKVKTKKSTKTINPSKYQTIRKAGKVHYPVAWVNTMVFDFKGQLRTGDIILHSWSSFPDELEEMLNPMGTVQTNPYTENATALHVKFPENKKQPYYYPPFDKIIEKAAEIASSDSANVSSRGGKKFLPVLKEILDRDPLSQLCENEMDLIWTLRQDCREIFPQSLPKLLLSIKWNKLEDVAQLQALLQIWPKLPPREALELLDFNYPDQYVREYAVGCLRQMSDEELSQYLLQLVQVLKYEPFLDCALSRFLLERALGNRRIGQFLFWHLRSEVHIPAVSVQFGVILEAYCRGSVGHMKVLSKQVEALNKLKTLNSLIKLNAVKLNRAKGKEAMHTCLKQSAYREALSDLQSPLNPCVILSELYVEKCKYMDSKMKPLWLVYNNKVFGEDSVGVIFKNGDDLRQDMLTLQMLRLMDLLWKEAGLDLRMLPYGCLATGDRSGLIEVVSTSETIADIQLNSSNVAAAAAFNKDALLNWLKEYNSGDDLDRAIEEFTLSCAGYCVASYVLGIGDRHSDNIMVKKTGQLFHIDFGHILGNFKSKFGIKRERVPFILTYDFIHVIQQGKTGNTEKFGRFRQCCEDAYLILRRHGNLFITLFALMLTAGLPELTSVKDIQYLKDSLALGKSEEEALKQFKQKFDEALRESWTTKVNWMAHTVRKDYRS

As for `CN(Cc1ccncc1)c1ccc([N+](=O)[O-])cc1S(=O)(=O)N(C)/N=C/c1cnn2ccc(C#N)cc12`, the IC50 came out at 150 nM in experiment [1]; 390 nM on PI3K p110 beta/p85 alpha; 15 nM in experiment [2]; 44 nM in experiment [3]; 480 nM in experiment [4].
As for `C/C(=N\N(C)S(=O)(=O)c1cc([N+](=O)[O-])ccc1N(C)Cc1ccccn1)c1cnn2ccc(Br)cc12`, the values for the IC50 in experiment [2], in experiment [3] and in experiment [4] were 1040 nM, 2600 nM and 3000 nM, respectively.
For the molecule `CN(C)CCN(C)c1ccc(C#N)cc1C(=O)N(C)/N=C/c1cnn2ccc(C#N)cc12`, the concentration for half-maximal inhibition (IC50) in experiment [2] came out at 630 nM; in experiment [3], 2900 nM; in experiment [4] it was 6200 nM.
`CN(CCCN1CCOCC1)c1ccc([N+](=O)[O-])cc1S(=O)(=O)N(C)/N=C/c1cnn2ccc(C#N)cc12`: the IC50 in experiment [1] is 170 nM; at PI3K p110 beta/p85 alpha it was 510 nM; in experiment [2], 26 nM; in experiment [3], 71 nM; in experiment [4], 560 nM.
`CN(CCN)c1ccc([N+](=O)[O-])cc1S(=O)(=O)N(C)/N=C/c1cnn2ccc(C#N)cc12`: the IC50 in experiment [1] was 470 nM; on PI3K p110 beta/p85 alpha it was > 1000 nM; in experiment [2], 50 nM; in experiment [3], 29 nM; in experiment [4] it was 57 nM.
For `CN(C)CCN(C)c1ccc([N+](=O)[O-])cc1S(=O)(=O)N(C)/N=C/c1cnn2ccc(Br)cc12`, the values for the IC50 in experiment [2], in experiment [3] and in experiment [4] were 510 nM, < 2 nM and < 2 nM, respectively.
With `CN(/N=C/c1cnn2ccc(C#N)cc12)S(=O)(=O)c1cc([N+](=O)[O-])ccc1OCCN1CCOCC1`, the IC50 in experiment [1] was determined as 94 nM; at PI3K p110 beta/p85 alpha, 220 nM; in experiment [2] it was 21 nM; in experiment [3], 440 nM; in experiment [4], 410 nM.
As for `Cc1ccc([N+](=O)[O-])cc1S(=O)(=O)N(CCO)/N=C/c1cnn2ccc(C#N)cc12`, the IC50 in experiment [2] was determined as 1.3 nM; in experiment [4], 140 nM.
Regarding `CN(C)CCN(C)c1ccc([N+](=O)[O-])cc1C(=O)N(C)/N=C/c1cnn2ccc(C#N)cc12`, the 50% inhibitory concentration (IC50) amounted to 68 nM in experiment [1]; 230 nM at PI3K p110 beta/p85 alpha; 580 nM in experiment [2]; 5600 nM in experiment [3]; 3100 nM in experiment [4].
For `C/C(=N\NS(=O)(=O)c1cc([N+](=O)[O-])ccc1N(C)CCN(C)C)c1cnn2ccc(C#N)cc12`, in that order: 676 nM, 900 nM, 51 nM, 460 nM and 2000 nM.
Regarding `CN(/N=C/c1cnn2ccc(C#N)cc12)S(=O)(=O)c1cc(C#N)ccc1OCCN1CCOCC1`, the IC50 in experiment [1] was 680 nM; on PI3K p110 beta/p85 alpha, > 1000 nM; in experiment [2], 360 nM; in experiment [3] it was 400 nM; in experiment [4], 390 nM.
Take `C/C(=N\NS(=O)(=O)c1cc([N+](=O)[O-])ccc1N(C)CCCN1CCOCC1)c1cnn2ccc(Br)cc12`: the IC50 is 448 nM in experiment [2], 900 nM in experiment [3] and 3200 nM in experiment [4].
On the same counts, the results for `C/C(=N\N(C)S(=O)(=O)c1cc([N+](=O)[O-])ccc1N(C)CCCN1CCOCC1)c1cnn2ccc(C#N)cc12` are > 1000 nM, 3300 nM and 2400 nM.
For `C/C(=N\N(C)S(=O)(=O)c1cc([N+](=O)[O-])ccc1N(C)CCCN1CCOCC1)c1cnn2ccc(Br)cc12`, in that order: > 1000 nM, 5100 nM and 3800 nM.
In the case of `CN(C)CCNc1ccc([N+](=O)[O-])cc1S(=O)(=O)N(C)/N=C/c1cnn2ccc(C#N)cc12`, the IC50 in experiment [1] is > 1000 nM; on PI3K p110 beta/p85 alpha it was > 1000 nM; in experiment [2], 430 nM; in experiment [3], 750 nM; in experiment [4], 640 nM.
For `C/C(=N\NS(=O)(=O)c1cc([N+](=O)[O-])ccc1N(C)Cc1ccccn1)c1cnn2ccc(C#N)cc12`, the IC50 was 11 nM in experiment [1]; 207 nM at PI3K p110 beta/p85 alpha; 4.8 nM in experiment [2]; 97 nM in experiment [3]; 3200 nM in experiment [4].
Consider `C/C(=N\NS(=O)(=O)c1cc([N+](=O)[O-])ccc1N(C)CCCN1CCOCC1)c1cnn2ccc(C#N)cc12`, for which the IC50 in experiment [2] was determined as 333 nM; in experiment [3], 2400 nM; in experiment [4], 9500 nM.
For `CN(CCCN1CCOCC1)c1ccc(C#N)cc1S(=O)(=O)N(C)/N=C/c1cnn2ccc(C#N)cc12`, the IC50 in experiment [1] is 370 nM; on PI3K p110 beta/p85 alpha, > 1000 nM; in experiment [2] it was 240 nM; in experiment [3], 21 nM; in experiment [4] it was 360 nM.
Regarding `CN(/N=C/c1cnn2ccc(C#N)cc12)S(=O)(=O)c1cc([N+](=O)[O-])ccc1NCCN1CCOCC1`, the IC50 is 27 nM in experiment [1]; > 1000 nM at PI3K p110 beta/p85 alpha; 9 nM in experiment [2]; 9400 nM in experiment [3]; > 20000 nM in experiment [4].
On the same counts, the results for `CN(C)CCOc1ccc([N+](=O)[O-])cc1S(=O)(=O)N(C)/N=C/c1cnn2ccc(C#N)cc12` are > 1000 nM, > 1000 nM, 75 nM, 100 nM and 170 nM.
As to `CN(CCN1CCCCC1)c1ccc([N+](=O)[O-])cc1S(=O)(=O)N(C)/N=C/c1cnn2ccc(C#N)cc12`, the IC50 in experiment [1] was found to be 450 nM; at PI3K p110 beta/p85 alpha, 4200 nM; in experiment [2], 79 nM; in experiment [3], 92 nM; in experiment [4], 49 nM.
`C/C(=N\NS(=O)(=O)c1cc([N+](=O)[O-])ccc1N(C)CCN(C)C)c1cnn2ccc(Br)cc12`: the IC50 is > 1000 nM in experiment [1]; > 1000 nM on PI3K p110 beta/p85 alpha; 208 nM in experiment [2]; 420 nM in experiment [3]; 420 nM in experiment [4].
Take `CN(C)CCN(C)c1ccc([N+](=O)[O-])cc1S(=O)(=O)N(C)/N=C/c1cnn2ccc(C#N)cc12`: the IC50 in experiment [1] was found to be 230 nM; at PI3K p110 beta/p85 alpha, 670 nM; in experiment [2] it was 46 nM; in experiment [3], 49 nM; in experiment [4], 55 nM.
As for `CN(CCCN1CCOCC1)c1ccc([N+](=O)[O-])cc1S(=O)(=O)N(C)/N=C/c1cnn2ccc(Br)cc12`, the results for the IC50 in experiment [2], in experiment [3] and in experiment [4] were 370 nM, 94 nM and 670 nM, respectively.
On the same counts, the results for `CN(Cc1ccccn1)c1ccc(C#N)cc1S(=O)(=O)N(C)/N=C/c1cnn2ccc(C#N)cc12` are 40 nM, 130 nM and 960 nM.
Regarding `CN(Cc1cccnc1)c1ccc([N+](=O)[O-])cc1S(=O)(=O)N(C)/N=C/c1cnn2ccc(C#N)cc12`, the IC50 in experiment [1] turned out to be 160 nM; on PI3K p110 beta/p85 alpha, 530 nM; in experiment [2], 5.8 nM; in experiment [3], 540 nM; in experiment [4] it was 630 nM.
Consider `CN(Cc1ccccn1)c1ccc([N+](=O)[O-])cc1S(=O)(=O)N(C)/N=C/c1cnn2ccc(Br)cc12`, for which the IC50 on PI3K p110 beta/p85 alpha is > 1000 nM; in experiment [2] it was 180 nM; in experiment [3], 93 nM; in experiment [4] it was 580 nM.
For `C/C(=N\N(C)S(=O)(=O)c1cc([N+](=O)[O-])ccc1N(C)CCN(C)C)c1cnn2ccc(Br)cc12`, the IC50 in experiment [1] is > 1000 nM; in experiment [2], > 1000 nM; in experiment [3], 3500 nM; in experiment [4], 930 nM.

The record behind these values is ChEMBL document CHEMBL3875196, “Novel pyrazolo[1,5-a]pyridines with improved aqueous solubility as p110α-selective PI3 kinase inhibitors” (Bioorg Med Chem Lett, 2017).
